Reference: ChEMBL document CHEMBL5233206, “An overview on the synthesis of carbohydrate-based molecules with biological activity related to neurodegenerative diseases” (RSC Med Chem, 2021)

Experiments:
[1] = target: Cholinesterase (Mus musculus, UniProt Q03311); assay: Inhibition of mouse serum BuChE; type: cell-free
[2] = target: T1, Acetylcholinesterase (Mus musculus, UniProt P21836); assay: Inhibition of mouse brain AChE; type: tissue-based
T1 sequence (P21836 whole entry): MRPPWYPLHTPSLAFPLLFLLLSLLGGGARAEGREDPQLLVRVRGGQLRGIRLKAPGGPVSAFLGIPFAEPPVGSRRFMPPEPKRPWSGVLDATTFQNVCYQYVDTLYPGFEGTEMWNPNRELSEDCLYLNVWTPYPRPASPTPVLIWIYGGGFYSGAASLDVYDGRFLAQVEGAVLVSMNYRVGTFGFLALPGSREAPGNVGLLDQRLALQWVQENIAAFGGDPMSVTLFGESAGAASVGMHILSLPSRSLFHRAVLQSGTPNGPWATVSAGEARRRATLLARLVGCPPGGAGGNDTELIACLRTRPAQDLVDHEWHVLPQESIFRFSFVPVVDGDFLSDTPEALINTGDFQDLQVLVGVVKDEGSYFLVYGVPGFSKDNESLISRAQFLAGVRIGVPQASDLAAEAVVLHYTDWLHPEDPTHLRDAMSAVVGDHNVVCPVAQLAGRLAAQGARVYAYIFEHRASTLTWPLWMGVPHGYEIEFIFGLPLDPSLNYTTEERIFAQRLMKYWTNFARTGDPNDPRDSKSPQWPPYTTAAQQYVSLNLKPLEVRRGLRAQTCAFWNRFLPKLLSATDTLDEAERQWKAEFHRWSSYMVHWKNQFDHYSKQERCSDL

[3] = target: T2, Cholinesterase (Equus caballus, UniProt P81908); assay: Binding affinity to horse serum BuChE using ATCh-iodide as substrate by ellman's method
[4] = target: T3, Acetylcholinesterase (Electrophorus electricus, UniProt O42275)
Description: Binding affinity to electrical eel AChE assessed as inhibition constant incubated for 20 mins by absorbance based analysis

[5] = target: T4, Acetylcholinesterase (Homo sapiens, UniProt P22303); assay: Inhibition of AChE (unknown origin)
[6] = Lipophilicity, logP of the compound; type: physicochemical; conditions: octanol/water
[7] = target: T3, Acetylcholinesterase; assay: Inhibition of electrical eel AChE by ellman's method
[8] = target: T2, Cholinesterase
Description: Inhibition of equine serum BuChE by ellman's method

[9] = target: T5, Cholinesterase (Homo sapiens, UniProt P06276)
Description: Binding affinity to BuChE (unknown origin) assessed as inhibition constant

[10] = target: T4, Acetylcholinesterase
Description: Binding affinity to AChE (unknown origin) assessed as inhibition constant incubated for 30 mins by ellman's method

[11] = target: T5, Cholinesterase; remark: listed apart in the source
Description: Binding affinity to BuChE (unknown origin) assessed as inhibition constant incubated for 30 mins by ellman's method

T3 sequence (O42275 whole entry): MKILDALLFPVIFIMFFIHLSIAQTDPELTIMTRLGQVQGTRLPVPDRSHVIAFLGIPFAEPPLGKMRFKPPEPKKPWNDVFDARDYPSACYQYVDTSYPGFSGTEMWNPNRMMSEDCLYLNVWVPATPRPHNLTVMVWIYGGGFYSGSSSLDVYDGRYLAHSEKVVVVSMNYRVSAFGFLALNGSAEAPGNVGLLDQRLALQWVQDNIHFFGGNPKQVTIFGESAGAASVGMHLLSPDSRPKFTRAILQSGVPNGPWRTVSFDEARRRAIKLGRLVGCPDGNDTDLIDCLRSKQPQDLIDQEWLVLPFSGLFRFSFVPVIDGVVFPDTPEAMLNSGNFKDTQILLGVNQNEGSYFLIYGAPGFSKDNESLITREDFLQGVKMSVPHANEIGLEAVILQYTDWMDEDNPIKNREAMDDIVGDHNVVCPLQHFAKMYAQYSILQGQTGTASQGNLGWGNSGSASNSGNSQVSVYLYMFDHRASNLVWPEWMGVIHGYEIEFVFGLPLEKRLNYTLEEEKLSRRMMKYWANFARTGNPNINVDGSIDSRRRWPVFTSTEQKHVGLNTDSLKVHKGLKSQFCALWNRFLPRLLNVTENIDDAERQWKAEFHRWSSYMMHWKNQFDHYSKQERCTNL
T5 sequence (P06276 whole entry): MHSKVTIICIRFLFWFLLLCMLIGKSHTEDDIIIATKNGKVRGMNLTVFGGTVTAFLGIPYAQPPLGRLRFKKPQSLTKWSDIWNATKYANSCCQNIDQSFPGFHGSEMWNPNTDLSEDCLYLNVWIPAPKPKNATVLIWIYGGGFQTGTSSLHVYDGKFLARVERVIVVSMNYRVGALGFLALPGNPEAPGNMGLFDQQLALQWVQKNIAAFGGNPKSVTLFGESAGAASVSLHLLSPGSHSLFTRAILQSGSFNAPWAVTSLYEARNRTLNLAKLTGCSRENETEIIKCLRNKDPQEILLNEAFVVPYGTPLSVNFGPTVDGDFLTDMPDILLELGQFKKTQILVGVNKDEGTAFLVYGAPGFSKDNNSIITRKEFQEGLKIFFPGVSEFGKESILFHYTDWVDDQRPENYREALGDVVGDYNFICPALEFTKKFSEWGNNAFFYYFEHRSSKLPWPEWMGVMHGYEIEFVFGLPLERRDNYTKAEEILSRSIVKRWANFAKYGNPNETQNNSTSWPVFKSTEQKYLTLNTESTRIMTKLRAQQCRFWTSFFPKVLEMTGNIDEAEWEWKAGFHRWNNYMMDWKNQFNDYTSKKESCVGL
T4 sequence (P22303 whole entry): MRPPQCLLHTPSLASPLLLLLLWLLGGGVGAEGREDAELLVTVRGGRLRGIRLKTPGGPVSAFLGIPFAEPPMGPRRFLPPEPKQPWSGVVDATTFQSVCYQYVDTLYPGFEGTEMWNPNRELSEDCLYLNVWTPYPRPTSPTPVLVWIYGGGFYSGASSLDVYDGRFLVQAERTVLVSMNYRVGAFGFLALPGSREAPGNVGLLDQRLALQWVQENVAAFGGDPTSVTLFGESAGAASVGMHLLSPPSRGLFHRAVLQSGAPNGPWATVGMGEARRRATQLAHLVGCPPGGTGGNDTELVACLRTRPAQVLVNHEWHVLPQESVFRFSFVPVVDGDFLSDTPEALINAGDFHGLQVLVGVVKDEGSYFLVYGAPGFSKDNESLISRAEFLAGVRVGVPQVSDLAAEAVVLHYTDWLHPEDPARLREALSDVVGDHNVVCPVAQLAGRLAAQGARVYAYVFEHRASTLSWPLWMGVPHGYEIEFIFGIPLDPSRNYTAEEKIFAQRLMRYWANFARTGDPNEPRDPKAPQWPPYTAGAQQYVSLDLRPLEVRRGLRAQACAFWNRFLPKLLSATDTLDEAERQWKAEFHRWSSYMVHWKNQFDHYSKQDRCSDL
Sequence of Cholinesterase (Mus musculus, UniProt Q03311) (Q03311 whole entry): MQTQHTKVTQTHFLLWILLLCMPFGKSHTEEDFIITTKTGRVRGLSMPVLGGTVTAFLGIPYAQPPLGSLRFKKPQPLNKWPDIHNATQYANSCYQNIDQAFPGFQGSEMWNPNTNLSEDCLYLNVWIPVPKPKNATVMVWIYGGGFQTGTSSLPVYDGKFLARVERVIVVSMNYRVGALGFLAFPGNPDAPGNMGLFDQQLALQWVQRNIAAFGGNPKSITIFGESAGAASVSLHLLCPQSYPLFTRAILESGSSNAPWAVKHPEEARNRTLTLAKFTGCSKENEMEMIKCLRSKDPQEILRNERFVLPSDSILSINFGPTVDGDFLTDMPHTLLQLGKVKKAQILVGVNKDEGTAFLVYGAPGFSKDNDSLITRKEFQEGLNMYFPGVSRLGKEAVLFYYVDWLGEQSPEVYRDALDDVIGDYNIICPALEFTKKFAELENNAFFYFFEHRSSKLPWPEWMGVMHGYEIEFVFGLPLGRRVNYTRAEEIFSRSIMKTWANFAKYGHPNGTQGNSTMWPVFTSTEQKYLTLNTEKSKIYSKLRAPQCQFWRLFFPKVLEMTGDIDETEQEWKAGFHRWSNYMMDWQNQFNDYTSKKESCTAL
T2 sequence (P81908 whole entry): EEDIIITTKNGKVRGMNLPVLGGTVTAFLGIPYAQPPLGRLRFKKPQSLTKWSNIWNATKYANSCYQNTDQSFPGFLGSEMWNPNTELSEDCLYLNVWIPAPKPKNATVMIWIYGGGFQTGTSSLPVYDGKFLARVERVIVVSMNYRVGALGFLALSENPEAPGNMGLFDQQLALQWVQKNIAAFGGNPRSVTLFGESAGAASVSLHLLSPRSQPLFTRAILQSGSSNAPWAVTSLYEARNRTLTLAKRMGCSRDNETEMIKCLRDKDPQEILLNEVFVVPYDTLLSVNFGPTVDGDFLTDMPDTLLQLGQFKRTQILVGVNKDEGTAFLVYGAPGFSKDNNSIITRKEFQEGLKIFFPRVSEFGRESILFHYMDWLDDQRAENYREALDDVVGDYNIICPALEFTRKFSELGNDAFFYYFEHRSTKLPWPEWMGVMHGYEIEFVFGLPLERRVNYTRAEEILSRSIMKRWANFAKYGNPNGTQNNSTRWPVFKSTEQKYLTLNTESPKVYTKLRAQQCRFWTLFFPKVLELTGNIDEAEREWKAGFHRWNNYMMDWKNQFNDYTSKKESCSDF

**Q.** For `CO[C@@H]1O[C@H](CNCCCCCCCCCNc2c3c(nc4ccccc24)CCCC3)[C@H]2OC(C)(C)O[C@@H]12`, which IC50 [1] is on record?
**A.** The IC50 was 0.037 µM.

**Q.** And the IC50 [2]?
**A.** The IC50 was 0.09 µM.

**Q.** Which Ki [3] does the source give for `OC[C@H]1O[C@@H](OCCN2CN(Cc3ccccc3)c3ccccc32)[C@H](O)[C@@H](O)[C@@H]1O` here?
**A.** The Ki was 52 µM.

**Q.** With `CCCCCCCCCCCCNC(=O)[C@@H](OCc1ccccc1)[C@H]1O[C@@H](n2cc(-c3ccccc3)nn2)[C@H](OC(C)=O)[C@H]1OCc1ccccc1` as the compound, how does the Ki [4] read?
**A.** The Ki was 3.53 µM.

**Q.** With `COc1cc([C@@H](O)[C@H](CO[C@@H]2O[C@H](CO)[C@@H](O)[C@H](O)[C@H]2O)Oc2ccc(CCCO)cc2OC)ccc1O` as the compound, how does the IC50 [5] read?
**A.** Its IC50 is 0.75 µM.

**Q.** What does the source list for `O=c1c2ccccc2n(CCCCCCn2cc(CO[C@@H]3O[C@H](CO)[C@@H](O)[C@H](O)[C@H]3O)nn2)c2ccccc12`?
**A.** logP [6]: 2.14; IC50 [7]: 38.2 µM; IC50 [8]: 29.3 µM

**Q.** What does the source list for `CC1(C)O[C@H]2O[C@H](CNCCCCCCCCNc3c4c(nc5ccccc35)CCCC4)[C@H](O)[C@H]2O1`?
**A.** IC50 [1]: 0.011 µM; IC50 [2]: 0.084 µM

**Q.** For `CC(=O)O[C@H]1C(NS(C)(=O)=O)O[C@H](Cn2c(=O)c3c(ncn3C)n(C)c2=O)[C@@H]1OCc1ccccc1` (stereo partly drawn), which Ki [4] is on record?
**A.** The Ki was 6.61 µM.

**Q.** Which IC50 [1] does the source give for `CC1(C)O[C@H]2[C@@H](O1)[C@@H](CNCCCCCCCCCNc1c3c(nc4ccccc14)CCCC3)O[C@@H]1OC(C)(C)O[C@@H]12` here?
**A.** The IC50 was 0.037 µM.

**Q.** What about the IC50 [2] of the same compound?
**A.** Its IC50 is 0.0048 µM.

**Q.** For `CCCCCCCCCCCCNC(=O)[C@@H](OCc1ccccc1)[C@H]1O[C@@H](N=[N+]=[N-])[C@H](OC(C)=O)[C@H]1OCc1ccccc1`, which Ki [4] is on record?
**A.** Its Ki is 1.73 µM.

**Q.** What does the source list for `O=c1c2ccccc2n(CCCCCCn2cc(CO[C@H]3C[C@H](O)[C@@H](CO)O3)nn2)c2ccccc12`?
**A.** IC50 [7]: 167 µM; IC50 [8]: 42.8 µM

**Q.** With `CO[C@H]1O[C@H](Cn2c(=O)c3c(ncn3C)n(C)c2=O)[C@@H](OC(C)=O)[C@H](OC(C)=O)[C@H]1OC(C)=O` as the compound, how does the Ki [9] read?
**A.** Its Ki is 4 µM.

**Q.** And the Ki [4]?
**A.** Its Ki is 4.3 µM.

**Q.** Which results are given for `CC1(C)O[C@H]2O[C@H](NCCCCCCCNc3c4c(nc5ccccc35)CCCC4)[C@H](O)[C@H]2O1`?
**A.** IC50 [1]: 0.027 µM; IC50 [2]: 0.0087 µM

**Q.** For `Cn1cnc2c1c(=O)n(C[C@H]1O[C@@H]3OC(C)(C)O[C@@H]3[C@H]1OCc1ccccc1)c(=O)n2C`, which Ki [4] is on record?
**A.** The Ki was greater than 100 µM.

**Q.** Which results are given for `CC(=O)Nc1nc(Cl)c2ncn(C3O[C@H]4[C@H](OC(=O)[C@@H]4O)[C@H]3OC(C)=O)c2n1` (stereo partly drawn)?
**A.** Ki [10]: 23.7 µM; Ki [11]: > 100 µM

**Q.** Which Ki [10] does the source give for `CC(=O)Nc1nc(NCc2ccccc2)c2ncn(C3O[C@H](CC(=O)NCc4ccccc4)[C@H](OC(C)=O)[C@H]3OC(C)=O)c2n1` (stereo partly drawn) here?
**A.** Its Ki is 50.5 µM.

**Q.** And the Ki [11]?
**A.** The Ki was greater than 100 µM.

**Q.** What does the source list for `CO[C@@H]1O[C@H](CNCCCCCCCCCCNc2c3c(nc4ccccc24)CCCC3)[C@H]2OC(C)(C)O[C@@H]12`?
**A.** IC50 [1]: 0.064 µM; IC50 [2]: 0.065 µM

**Q.** Which Ki [4] does the source give for `CCCCCCCCCCCCNC(=O)[C@@H](OCc1ccccc1)[C@H]1O[C@H](n2cc(-c3ccccc3)nn2)[C@H](OC(C)=O)[C@H]1OCc1ccccc1` here?
**A.** Its Ki is 9.69 µM.

**Q.** Which Ki [11] does the source give for `CC(=O)Nc1nc(Cl)c2c(ncn2[C@H]2O[C@H](COCc3ccccc3)[C@@H](OCc3ccccc3)[C@H](OCc3ccccc3)[C@@H]2OCc2ccccc2)n1` here?
**A.** The Ki was 0.05 µM.

**Q.** For `CCCCCCCCCCCCNC(=O)[C@@H](OCc1ccccc1)[C@H]1OC(OC(C)=O)[C@H](OC(C)=O)[C@H]1OCc1ccccc1` (stereo partly drawn), which Ki [4] is on record?
**A.** Its Ki is greater than 100 µM.

**Q.** Which Ki [3] does the source give for `OC[C@H]1O[C@@H](OCCN2CN(Cc3ccccc3)c3ccccc32)[C@H](O)[C@@H](O)[C@H]1O` here?
**A.** The Ki was 26 µM.

**Q.** What does the source list for `CC(=O)Nc1nc(Cl)c2c(ncn2C2O[C@H](C(=O)O)[C@@H](OC(C)=O)[C@@H](OC(C)=O)[C@H]2OC(C)=O)n1` (stereo partly drawn)?
**A.** Ki [10]: 37.9 µM; Ki [11]: > 100 µM

**Q.** With `CC1=C(CO[C@@H]2O[C@H](CO[C@@H]3O[C@H](CO)[C@@H](O)[C@H](O)[C@H]3O)[C@@H](O)[C@H](O)[C@H]2O)C(C)(C)CCC1` as the compound, how does the IC50 [5] read?
**A.** The IC50 was 3.2 µM.

**Q.** Which IC50 [1] does the source give for `CC1(C)O[C@H]2[C@@H](O1)[C@@H](CNCCCCCCCCCCNc1c3c(nc4ccccc14)CCCC3)O[C@@H]1OC(C)(C)O[C@@H]12` here?
**A.** Its IC50 is 0.026 µM.

**Q.** And the IC50 [2]?
**A.** Its IC50 is 0.0076 µM.

**Q.** With `O=c1c2ccccc2n(CCCCCCn2cc(CO[C@@H]3O[C@H](CO)[C@H](O)[C@H](O)[C@H]3O)nn2)c2ccccc12` as the compound, how does the IC50 [7] read?
**A.** The IC50 was 44.7 µM.

**Q.** And the IC50 [8]?
**A.** The IC50 was 38.3 µM.
